According to patent US10526337B2, “Heteroaryl derivative or pharmaceutically acceptable salt thereof, preparation method therefor, and pharmaceutical composition for preventing or treating diseases associated with PI3 kinases, containing same as active ingredient” (KOREA RESEARCH INSTITUTE OF CHEMICAL TECHNOLOGY, priority 2015, dated 2020):

How the values were obtained:
PI3 Kinase (p120γ) (h) = target: T1, PI3 Kinase (p120γ) (h) (Homo sapiens, UniProt P48736); test: Inhibition of phosphatidylinositol 3-kinase gamma (PI3K γ), pAkt Western blotting in C5a-stimulated RAW264.7 macrophages; assay type: cell-based, mouse; conditions: ATP=10 uM, sample concentration=100 nM
T1 construct: endogenous in cells; host or cells: RAW264.7
T1 sequence (P48736 whole entry): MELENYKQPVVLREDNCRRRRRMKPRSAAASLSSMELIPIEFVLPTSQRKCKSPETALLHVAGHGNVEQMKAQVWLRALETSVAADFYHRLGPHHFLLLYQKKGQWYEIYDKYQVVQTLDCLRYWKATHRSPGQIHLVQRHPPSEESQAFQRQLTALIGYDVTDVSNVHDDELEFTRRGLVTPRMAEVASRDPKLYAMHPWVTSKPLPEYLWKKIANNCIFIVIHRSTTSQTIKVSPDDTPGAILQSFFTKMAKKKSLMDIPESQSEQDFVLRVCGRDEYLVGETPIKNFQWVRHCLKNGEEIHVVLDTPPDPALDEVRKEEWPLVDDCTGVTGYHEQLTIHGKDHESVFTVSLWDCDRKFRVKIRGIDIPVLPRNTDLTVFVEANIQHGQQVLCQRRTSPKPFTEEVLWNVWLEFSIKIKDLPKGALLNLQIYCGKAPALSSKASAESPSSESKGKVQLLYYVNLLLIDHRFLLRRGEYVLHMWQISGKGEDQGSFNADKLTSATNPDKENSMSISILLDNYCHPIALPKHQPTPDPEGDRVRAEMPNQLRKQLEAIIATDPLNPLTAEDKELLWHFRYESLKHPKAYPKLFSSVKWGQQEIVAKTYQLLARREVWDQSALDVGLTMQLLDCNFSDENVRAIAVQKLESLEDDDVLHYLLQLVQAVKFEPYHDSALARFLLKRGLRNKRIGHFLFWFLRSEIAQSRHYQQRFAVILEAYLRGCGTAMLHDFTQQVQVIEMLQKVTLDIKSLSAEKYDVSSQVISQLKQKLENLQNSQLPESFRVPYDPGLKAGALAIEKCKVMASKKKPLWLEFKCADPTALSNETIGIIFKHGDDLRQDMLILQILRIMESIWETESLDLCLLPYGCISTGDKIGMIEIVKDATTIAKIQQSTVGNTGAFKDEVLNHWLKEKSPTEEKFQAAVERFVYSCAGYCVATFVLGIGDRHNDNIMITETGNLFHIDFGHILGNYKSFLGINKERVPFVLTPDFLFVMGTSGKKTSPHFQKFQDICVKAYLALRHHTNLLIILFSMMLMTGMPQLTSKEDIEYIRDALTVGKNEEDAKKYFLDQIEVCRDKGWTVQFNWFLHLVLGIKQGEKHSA
Procedure: (§1) The stimulated cells were transferred in a 1.5 mL tube, followed by centrifugation at 3000 rpm for 1 minute. 100 μL of RIPA buffer (radioimmunoprecipitation assay buffer, 50 mM Tris-HCl, 5 mM EDTA, 150 mM NaCl, 1% NP-40, 1 mM PMSF, pH 8.0; ELPIS, Korea) was added thereto, which was stored in a 4° C. refrigerator for 12 hours. Centrifugation was performed at 4° C. at 14,000 rpm for 20 minutes. The supernatant was transferred into a new 1.5 mL tube. Protein was quantified by BCA (bicinchoninic acid) method and samples were prepared. The composition of the sample was as follows: sample buffer (ELPIS, EBA-1052) 5×, protein 10 μg, and 1× sample buffer to make the total volume 20 μL. The sample was heated at 100° C. for 5 minutes. The evaporated water vapor was condensed in a refrigerator. The liquid stained on the wall was fallen down by centrifugation for a few seconds. The sample proceeded to 10% SDS (Sodium Dodecyl Sulfate) acrylamide gel for separation. The separated protein was transferred onto PVDF (poly-vinyl difluoride) membrane, followed by reaction with pAkt (phospho protein kinase B) antibody (Ser473 or Thr308; Cell signaling, 9271s or 13038s) for 12 hours at 4° C. The membrane was washed with TBST (Tris-Buffered Saline with Tween 20, 10 mM Tris-HCl, pH 7.5, 150 mM NaCl, 0.1% Tween-20) three times for 5 minutes each, to which the secondary antibody (rabbit antibody, Santacruz, sc-2004) was added, followed by reaction at room temperature for 2 hours. The membrane was washed with TBST three times for 10 minutes each, to which ECL (enhanced chemiluminescence, Thermo, NCI34095KR) was sprayed. Bands were investigated by using LAS-3000.
The inhibition of phosphatidylinositol 3 kinase gamma (PI3K γ) by those compounds prepared in Examples 1˜98 was investigated by the following experiment. The inhibition activity of each compound was measured in the following conditions: ATP=10 uM, and sample concentration=100 nM.
(§2) Macrophages (RAW264.7) cultured in DMEM (Dulbecco's Modified Eagle Medium, Hyclon, SH30243.01) supplemented with 10% fetal bovine serum (Hyclon, USA) were distributed in a 12-well plate at the density of 1,000,000 cells/well. The cells were stabilized in a 37° C. CO2 for 24 hours and then treated with each compound for 1 and half hours. The cells were treated with 10 ng/mL of C5a (complement component 5a, 10 μg/mL; R&D, 2150-C5) to increase the intracellular activity of PI3K gamma. 5 minutes later, the medium was discarded and the cells were washed with cold PBS (phosphate buffered saline, Gibco, 14190-250). PBS was then eliminated completely by using a pipette. Western blotting was performed according to the same manner as described in step 2 of Experimental Example 1 to evaluate the intracellular PI3K gamma activity.

[1] = target: T2, PI3 Kinase (p110δ/p85α) (h) (Homo sapiens, UniProt O00329); test: Inhibition of phosphatidylinositol 3-kinase delta (PI3K δ), pAkt Western blotting in IgM-stimulated Raji cells; assay type: cell-based; conditions: ATP=10 uM, sample concentration=100 nM
T2 construct: endogenous in cells; host or cells: Raji
T2 sequence (O00329 whole entry): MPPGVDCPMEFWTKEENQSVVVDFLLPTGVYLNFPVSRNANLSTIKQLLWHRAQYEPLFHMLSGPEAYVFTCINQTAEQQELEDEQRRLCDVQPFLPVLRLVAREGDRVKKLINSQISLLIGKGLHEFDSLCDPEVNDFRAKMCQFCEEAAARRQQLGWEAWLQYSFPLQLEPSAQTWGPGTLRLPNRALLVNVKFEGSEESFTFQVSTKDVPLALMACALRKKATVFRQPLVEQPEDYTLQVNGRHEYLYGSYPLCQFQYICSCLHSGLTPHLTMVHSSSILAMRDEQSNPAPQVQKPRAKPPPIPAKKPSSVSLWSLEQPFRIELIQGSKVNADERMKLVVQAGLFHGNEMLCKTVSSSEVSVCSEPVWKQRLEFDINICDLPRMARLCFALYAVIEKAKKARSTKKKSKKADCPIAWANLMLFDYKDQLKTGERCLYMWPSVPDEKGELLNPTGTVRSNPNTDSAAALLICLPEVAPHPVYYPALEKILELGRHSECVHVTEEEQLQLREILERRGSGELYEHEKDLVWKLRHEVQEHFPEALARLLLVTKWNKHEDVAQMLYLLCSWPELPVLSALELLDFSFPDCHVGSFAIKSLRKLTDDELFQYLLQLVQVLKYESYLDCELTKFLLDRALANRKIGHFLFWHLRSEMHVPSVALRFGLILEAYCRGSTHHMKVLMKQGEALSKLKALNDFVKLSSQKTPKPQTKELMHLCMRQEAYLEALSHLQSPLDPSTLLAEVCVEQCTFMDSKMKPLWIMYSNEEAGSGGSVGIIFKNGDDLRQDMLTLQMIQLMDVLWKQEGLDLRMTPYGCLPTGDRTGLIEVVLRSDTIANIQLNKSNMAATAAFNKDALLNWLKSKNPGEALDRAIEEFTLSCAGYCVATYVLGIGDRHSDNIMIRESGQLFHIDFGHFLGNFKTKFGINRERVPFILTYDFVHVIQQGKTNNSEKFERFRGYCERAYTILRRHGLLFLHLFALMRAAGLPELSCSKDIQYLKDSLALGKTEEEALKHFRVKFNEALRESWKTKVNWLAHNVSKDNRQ
T2 sequence (P27986 whole entry partner): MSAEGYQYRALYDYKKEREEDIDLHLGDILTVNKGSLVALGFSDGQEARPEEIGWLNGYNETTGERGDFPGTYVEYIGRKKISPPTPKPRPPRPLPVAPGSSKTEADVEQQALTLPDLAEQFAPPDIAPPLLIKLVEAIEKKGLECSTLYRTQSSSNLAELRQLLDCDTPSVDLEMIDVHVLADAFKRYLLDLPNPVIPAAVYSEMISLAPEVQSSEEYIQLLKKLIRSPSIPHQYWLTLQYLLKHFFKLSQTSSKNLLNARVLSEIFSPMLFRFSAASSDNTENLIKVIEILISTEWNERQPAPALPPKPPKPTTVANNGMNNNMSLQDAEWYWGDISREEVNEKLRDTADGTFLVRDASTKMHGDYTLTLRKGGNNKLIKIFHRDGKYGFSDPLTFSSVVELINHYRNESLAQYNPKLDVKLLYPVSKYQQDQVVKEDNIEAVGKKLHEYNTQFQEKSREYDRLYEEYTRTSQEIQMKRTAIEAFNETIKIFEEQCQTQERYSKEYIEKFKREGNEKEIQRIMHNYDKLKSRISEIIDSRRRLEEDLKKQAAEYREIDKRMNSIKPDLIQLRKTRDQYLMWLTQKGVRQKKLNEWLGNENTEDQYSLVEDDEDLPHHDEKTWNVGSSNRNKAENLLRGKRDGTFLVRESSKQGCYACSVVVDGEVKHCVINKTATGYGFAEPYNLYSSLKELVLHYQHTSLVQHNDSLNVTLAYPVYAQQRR
Procedure: as §1
The inhibition of phosphatidylinositol 3 kinase delta (PI3K δ) by those compounds prepared in Examples 1˜98 was investigated by the following experiment. The inhibition activity of each compound was measured in the following conditions: ATP=10 uM, and sample concentration=100 nM.
as §2, with “Raji cells” for “Macrophages (RAW264.7)”, “RPMI1640 (Hyclone, SH30027.02)” for “DMEM (Dulbecco's Modified Eagle Medium, Hyclon, SH30243.01)”, “0.25 μg/mL” for “10 ng/mL”, “IgM (immunoglobulin M, Southern Biotech, USA)” for “C5a (complement component 5a, 10 μg/mL; R&D, 2150-C5)”, “delta. 30” for “gamma. 5”, “delta” for “gamma”

SMILES	IC50 (PI3 Kinase (p120γ) (h)) [nM]	IC50 [1] [nM]
C[C@H](Nc1ncnc2[nH]cnc(=O)c12)c1nc2cccc(Cl)c2c(=O)n1-c1cccc(F)c1 [Example 68, (S)-5-((1-(5-chloro-3-(3-fluorophenyl)-4-oxo-3,4-dihydroquinazoline-2-yl)ethyl)amino)pyrimido[4,5-d]pyrimidine-4(1H)-one]	> 500	> 500
Cc1cccc(-n2c([C@H](C)Nc3ncnc4[nH]cnc(=O)c34)nc3cccc(Cl)c3c2=O)c1 [Example 69, (S)-5-((1-(5-chloro-4-oxo-3-(m-tolyl)-3,4-dihydroquinazoline-2-yl)ethyl)amino)pyrimido[4,5-d]pyrimidine-4(1H)-one]	> 500	10 to 500
C[C@H](Nc1ncnc2[nH]cnc(=O)c12)c1cc2cccc(Cl)c2c(=O)n1-c1ccccc1 [Example 70, (S)-5-((1-(8-chloro-1-oxo-2-phenyl-1,2-dihydroisoquinoline-3-yl)ethyl)amino)pyrimido[4,5-d]pyrimidine-4(1H)-one]	10 to 500	10 to 500
C[C@H](Nc1ncnc2[nH]cnc(=O)c12)c1nn2ccc(Cl)c2c(=O)n1-c1ccccc1 [Example 71, (S)-5-((1-(5-chloro-4-oxo-3-phenyl-3,4-dihydropyrrolo[2,1-f][1,2,4]triazine-2-yl)ethyl)amino)pyrimido[4,5-d]pyrimidine-4(1H)-one]	> 500	10 to 500
C[C@H](Nc1ncnc2[nH]cnc(=O)c12)c1cc2ccccc2nc1-c1ccccc1 [Example 72, (S)-5-((1-(2-phenylquinoline-3-yl)ethyl)amino)pyrimido[4,5-d]pyrimidine-4(1H)-one]	> 500	> 500
CC[C@H](Nc1ncnc2[nH]cnc(=O)c12)c1nc2cccc(F)c2c(=O)n1-c1ccccc1 [Example 73, (S)-5-((1-(5-fluoro-4-oxo-3-phenyl-3,4-dihydroquinazoline-2-yl)propyl)amino)pyrimido[4,5-d]pyrimidine-4(1H)-one]	> 500	> 500
O=c1nc[nH]c2ncnc(N3CCC[C@H]3c3nc4cccc(Cl)c4c(=O)n3-c3ccccc3)c12 [Example 74, (S)-5-(2-(5-chloro-4-oxo-3-phenyl-3,4-dihydroquinazoline-2-yl)pyrrolidine-1-yl)pyrimido[4,5-d]pyrimidine-4(1H)-one]	> 500	> 500
O=c1nc[nH]c2ncnc(N3CCC[C@H]3c3cc4cccc(Cl)c4c(=O)n3-c3cccnc3)c12 [Example 75, (S)-5-(2-(8-chloro-1-oxo-2-(pyridine-3-yl)-1,2-dihydroisoquinoline-3-yl)pyrrolidine-1-yl)pyrimido[4,5-d]pyrimidine-4(1H)-one]	> 500	10 to 500
O=c1nc[nH]c2ncnc(N3CCC[C@H]3c3nc4cccc(Cl)c4c(=O)n3-c3cccnc3)c12 [Example 76, (S)-5-(2-(5-chloro-4-oxo-3-(pyridine-3-yl)-3,4-dihydroquinazoline-2-yl)pyrrolidine-1-yl)pyrimido[4,5-d]pyrimidine-4(1H)-one]	> 500	> 500
O=c1nc[nH]c2ncnc(N3CCC[C@H]3c3nc4cccc(Cl)c4c(=O)n3-c3cccc(F)c3)c12 [Example 77, (S)-5-(2-(5-chloro-3-(3-fluorophenyl)-4-oxo-3,4-dihydroquinazoline-2-yl)pyrrolidine-1-yl)pyrimido[4,5-d]pyrimidine-4(1H)-one]	> 500	> 500
Cc1cccc(-n2c([C@@H]3CCCN3c3ncnc4[nH]cnc(=O)c34)nc3cccc(Cl)c3c2=O)c1 [Example 78, (S)-5-(2-(5-chloro-4-oxo-3-(m-tolyl)-3,4-dihydroquinazoline-2-yl)pyrrolidine-1-yl)pyrimido[4,5-d]pyrimidine-4(1H)-one]	> 500	> 500
O=c1nc[nH]c2ncnc(N3CCC[C@H]3c3nn4ccc(Cl)c4c(=O)n3-c3cccc(F)c3)c12 [Example 80, (S)-5-(2-(5-chloro-3-(3-fluorophenyl)-4-oxo-3,4-dihydropyrrolo[2,1-f][1,2,4]triazine-2-yl)pyrrolidine-1-yl)pyrimido[4,5-d]pyrimidine-4(1H)-one]	> 500	> 500
